Data published in patent publication US20180238860A1, “INDIVIDUAL METHOD PREDICTIVE OF THE DNA-BREAKING GENOTOXIC EFFECTS OF CHEMICAL OR BIOCHEMICAL AGENTS” (priority 2015, published 2018).

Columns and labels:
Type in all cases: cell-based, human
[1] = tested on: HMEC cells; assay: pH2AX foci 24 h after contacting, Table 4 lower part (HMEC endothelial cells); settings: line cell blank (below Hasp), 24 hours after contacting
Description: (§1) In one embodiment, on receipt, the tissue sample (typically the biopsy) is established in the form of an amplifiable cell line without a viral or chemical transformation agent according to an ancillary procedure well known to culture laboratories, as underlined by the publication of Elkind et al. “The radiobiology of cultured mammalian cell”, Gordon and Breach (1967). Once the number of cells is sufficient (typically after 1 to 3 weeks), the first experiments are carried out using the process according to the invention. A cell sample is prepared: The cells are inoculated on glass coverslips in Petri dishes. A portion of these coverslips are contaminated with metals or pesticides or any other DNA-breaking chemical or biochemical agent at different concentrations. A further portion is not contaminated; it represents the spontaneous state. During contamination, the cells remain in the culture incubator at 37° C.
(§2) For the contaminated cells, characteristics are acquired corresponding to the state after an incubation time with the DNA-breaking chemical or biochemical agent. Said characteristics are represented by foci corresponding to the marker pH2AX. The cells on glass coverslips are then fixed, lysed and hybridized. The following procedure, known per se (Bodgi et al, “A single formula to describe radiation-induced protein relocalization: towards a mathematical definition of individual radiosensitivity”, J Theor Biol. 21 p 333:135-45.2013):
(§3) the cells are fixed in 3% paraformaldehyde and 2% sucrose for 15 minutes at ambient temperature and permeabilized in 20 mM HEPES buffer solution (4-(2-hydroxyethyl)-1-piperazine ethane sulfonic acid) at pH 7.4, 50 mM NaCl, 3 mM MgCl2, 300 mM sucrose, 0.5% Triton X-100 (a non-ionic surfactant having the formula t-Oct-C6H4-(OCH2CH2)×OH where x=9-10, CAS No. 9002-93-1, supplied for example by Sigma Aldrich) for 3 minutes. The glass coverslips are then washed in phosphate buffer saline (known as the acronym PBS) before immunological staining. The incubation took place for 40 min at 37° C. in PBS supplemented with 2% bovine serum albumin (known as the acronym BSA or fraction V, supplied for example by Sigma Aldrich) and was followed by a wash with PBS. Anti-pH2AX primary antibodies are used at a concentration of 1:800. The incubations with anti-mouse FITC or anti-rabbit TRITC secondary antibodies (1:100, supplied by Sigma Aldrich) were performed at 37° C. in 2% BSA for 20 minutes. Glass coverslips were treated with Vectashield™ containing DAPI (4,6-Diamidino-2-phenylindole) to label the nucleus. Staining with DAPI also makes it possible, indirectly, to determine the number of cells in phase G1 (nuclei with homogenous DAPI staining), in phase S (nuclei with numerous pH2AX foci), in phase G2 (nuclei with heterogeneous DAPI staining) and metaphases (visible chromosomes).
(§4) The results are acquired using these coverslips on an immunofluorescence microscope (Olympus model for example). The reading may be direct (typically by counting the foci on at least 50 cells in G0/G1 for each point) or using dedicated image analysis software, or on an automated microscope; preferably the software or automated microscope methods are calibrated with manual determinations.
(§5) The tables hereinafter summarize the results of numerous experiments which were carried out as described in the “Detailed description” section above.
(§6) In tables 3 and 4, “pH2AX” corresponds to the mean number of nuclear foci obtained with the marker pH2AX, 24 hours after contacting the cell sample with the chemical agent at the concentration C (NpH2AX(24 h, C)), and where “Micronuclei” corresponds to the mean number of micronuclei observed per 100 cells 24 hours after contacting the cell sample with the chemical agent at the concentration C(NMN(24 h, C)).

[2] = tested on: HMEC cells; assay: Micronuclei per 100 cells 24 h after contacting, Table 4 lower part (HMEC); settings: line cell blank (below Hasp)
Description: as §1, §3
(§7) Counterstaining with DAPI (a DNA marker known to those skilled in the art) makes it possible to locate the nucleus to situate the cytoplasmic or nuclear location to quantify the micronuclei, which are complementary cell markers to the data on the foci.
as §5, §6

[3] = tested on: Ha (astrocyte cells); assay: Micronuclei per 100 cells 24 h after contacting, Ha astrocyte cells
Description: as §1, §3, §7, §5, §6
(§8) Table 4 presents a detection of number of pH2AX foci and number of micronuclei 24 hours after contacting control nervous system cell lines Ha (astrocyte cells), Hah (hippocampus astrocyte cells) and Hasp (spinal cord astrocyte cells) with a metallic compound (AlCl3, Cu, CuCl2, CuSO4, Pb(NO3)2, CdCl2, Cd-acetate or Cd-acetate-citrate) according to the concentration of said metallic compound used.

[4] = tested on: Ha (astrocyte cells); assay: pH2AX foci 24 h after contacting, Ha astrocyte cells; settings: Ha, 24 hours after contacting
Description: as §1, §2, §3, §4, §5
(§9) In tables 3 and 4, “pH2AX” corresponds to the mean number of nuclear foci obtained with the marker pH2AX, 24 hours after contacting the cell sample with the chemical agent at the concentration C (NpH2AX(24 h, C)), and where “Micronuclei” corresponds to the mean number of micronuclei observed per 100 cells 24 hours after contacting the cell sample with the chemical agent at the concentration C(NMN(24 h, C)). […]

[5] = tested on: Hasp (spinal cord astrocyte cells); assay: pH2AX foci 24 h after contacting, Hasp spinal cord astrocyte cells
Description: as §1, §2, §3, §4, §5, §9

[6] = tested on: Hah (hippocampus astrocyte cells); assay: pH2AX foci 24 h after contacting, Hah hippocampus astrocyte cells
Description: as §1, §2, §3, §4, §5, §9

[7] = tested on: Hah (hippocampus astrocyte cells); assay: Micronuclei per 100 cells 24 h after contacting, Hah
Description: as §1, §3, §7, §5, §6, §8

[8] = tested on: Hasp (spinal cord astrocyte cells); assay: Micronuclei per 100 cells 24 h after contacting, Hasp
Description: as §1, §3, §7, §5, §6, §8

**Q.** Which results are given for `CC(=O)[O-].CC(=O)[O-].[Cd+2]` [Cd-acetate]?
**A.** pH2AX ([1]; 10 μM): 5 foci; pH2AX ([1]; 30 μM): 5.5 foci; pH2AX ([1]; 100 μM): 7 foci; Micronuclei ([2]; 10 μM): 5 per 100 cells; Micronuclei ([2]; 30 μM): 10 per 100 cells; Micronuclei ([2]; 100 μM): 10 per 100 cells

**Q.** Which pH2AX ([1]; 3 μM) does the source give for `[Cl][Cu][Cl]` [CuCl2] here?
**A.** 1.6 foci

**Q.** And the pH2AX ([1]; 10 μM)?
**A.** 1.9 foci

**Q.** What about the pH2AX ([1]; 30 μM) of the same molecule?
**A.** 1.6 foci

**Q.** What about the pH2AX ([1]; 100 μM) of the same molecule?
**A.** 1.5 foci

**Q.** And the pH2AX ([1]; 300 μM)?
**A.** 5.3 foci

**Q.** And the pH2AX ([1]; 1000 μM)?
**A.** 21.4 foci

**Q.** And the Micronuclei ([2]; 3 μM)?
**A.** 4 per 100 cells

**Q.** And the Micronuclei ([2]; 10 μM)?
**A.** 6.7 per 100 cells

**Q.** What about the Micronuclei ([2]; 30 μM) of the same molecule?
**A.** 5.3 per 100 cells

**Q.** And the Micronuclei ([2]; 100 μM)?
**A.** 6.7 per 100 cells

**Q.** What about the Micronuclei ([2]; 300 μM) of the same molecule?
**A.** 7.3 per 100 cells

**Q.** What about the Micronuclei ([2]; 1000 μM) of the same molecule?
**A.** 4 per 100 cells

**Q.** Which results are given for `O=S(=O)([O-])[O-].[Cu+2]` [CuSO4]?
**A.** pH2AX ([1]; 3 μM): 1.9 foci; pH2AX ([1]; 10 μM): 2.3 foci; pH2AX ([1]; 30 μM): 3.4 foci; pH2AX ([1]; 100 μM): 6.4 foci; pH2AX ([1]; 300 μM): 20.1 foci; pH2AX ([1]; 1000 μM): 30.2 foci; Micronuclei ([2]; 3 μM): 3 per 100 cells; Micronuclei ([2]; 10 μM): 5 per 100 cells; Micronuclei ([2]; 30 μM): 4.7 per 100 cells; Micronuclei ([2]; 100 μM): 5.3 per 100 cells; Micronuclei ([2]; 300 μM): 9.3 per 100 cells; Micronuclei ([2]; 1000 μM): 4 per 100 cells

**Q.** For `[Cu]` [Cu], which Micronuclei ([3]; 10 μM) is on record?
**A.** 4 per 100 cells

**Q.** And the Micronuclei ([3]; 30 μM)?
**A.** 5 per 100 cells

**Q.** What about the Micronuclei ([3]; 100 μM) of the same molecule?
**A.** 13 per 100 cells

**Q.** What about the Micronuclei ([3]; 300 μM) of the same molecule?
**A.** 20 per 100 cells

**Q.** And the Micronuclei ([3]; 1000 μM)?
**A.** 50 per 100 cells

**Q.** What about the pH2AX ([4]; 10 μM) of the same molecule?
**A.** 0.3 foci

**Q.** What about the pH2AX ([4]; 30 μM) of the same molecule?
**A.** 0.62 foci

**Q.** What about the pH2AX ([4]; 100 μM) of the same molecule?
**A.** 2.55 foci

**Q.** What about the pH2AX ([4]; 300 μM) of the same molecule?
**A.** 0 foci

**Q.** And the pH2AX ([4]; 1000 μM)?
**A.** 0 foci

**Q.** And the pH2AX ([5]; 10 μM)?
**A.** 0.29 foci

**Q.** And the pH2AX ([5]; 30 μM)?
**A.** 0.64 foci

**Q.** And the pH2AX ([5]; 100 μM)?
**A.** 1.13 foci

**Q.** And the pH2AX ([5]; 300 μM)?
**A.** 1.78 foci

**Q.** What about the pH2AX ([5]; 1000 μM) of the same molecule?
**A.** 2.36 foci

**Q.** What about the pH2AX ([6]; 10 μM) of the same molecule?
**A.** 1.01 foci

**Q.** What about the pH2AX ([6]; 30 μM) of the same molecule?
**A.** 1.87 foci

**Q.** What about the pH2AX ([6]; 100 μM) of the same molecule?
**A.** 2.62 foci

**Q.** What about the pH2AX ([6]; 300 μM) of the same molecule?
**A.** 5.45 foci

**Q.** What about the pH2AX ([6]; 1000 μM) of the same molecule?
**A.** 6.61 foci

**Q.** And the Micronuclei ([7]; 10 μM)?
**A.** 6 per 100 cells

**Q.** And the Micronuclei ([7]; 30 μM)?
**A.** 10.7 per 100 cells

**Q.** What about the Micronuclei ([7]; 100 μM) of the same molecule?
**A.** 20.7 per 100 cells

**Q.** What about the Micronuclei ([7]; 300 μM) of the same molecule?
**A.** 46.7 per 100 cells

**Q.** And the Micronuclei ([7]; 1000 μM)?
**A.** 73.3 per 100 cells

**Q.** And the Micronuclei ([8]; 10 μM)?
**A.** 4 per 100 cells

**Q.** And the Micronuclei ([8]; 30 μM)?
**A.** 7 per 100 cells

**Q.** And the Micronuclei ([8]; 100 μM)?
**A.** 9 per 100 cells

**Q.** What about the Micronuclei ([8]; 300 μM) of the same molecule?
**A.** 10 per 100 cells

**Q.** What about the Micronuclei ([8]; 1000 μM) of the same molecule?
**A.** 16 per 100 cells

**Q.** Which pH2AX ([1]; 10 μM) does the source give for Cd-acetate-citrate here?
**A.** 1 foci

**Q.** And the pH2AX ([1]; 30 μM)?
**A.** 4.75 foci

**Q.** What about the pH2AX ([1]; 100 μM) of the same molecule?
**A.** 7 foci
